Results published in ChEMBL document CHEMBL5365485 (J Med Chem, 2023).
The source made the active and inactive calls. The calls are words filed in the database; no cut-off is given here.

What was measured:
[1] = molecular target: Hypoxia-inducible factor 1-alpha (Homo sapiens) (UniProt Q16665); assay: Stabilization of HIF-1alpha in human HeLa cells at 50 uM incubated for 2 hrs by Western blot analysis relative to VH298; assay type: cell-based
[2] = molecular target: Hypoxia-inducible factor 1-alpha (Homo sapiens) (UniProt Q16665); assay: Stabilization of HIF-1alpha in HEK293 cells at 50 uM incubated for 2 hrs by Western blot analysis relative to VH298; assay type: cell-based
[3] = molecular target: Hypoxia-inducible factor 1-alpha (Homo sapiens) (UniProt Q16665); assay: Stabilization of hydroxylated HIF-1alpha in human HeLa cells at 50 uM incubated for 2 hrs by Western blot analysis relative to VH298; assay type: cell-based
[4] = molecular target: Hypoxia-inducible factor 1-alpha (Homo sapiens) (UniProt Q16665); assay: Stabilization of hydroxylated HIF-1alpha in HEK293 cells at 50 uM incubated for 2 hrs by Western blot analysis relative to VH298; assay type: cell-based
[5] = molecular target: Von Hippel-Lindau disease tumor suppressor/Elongin B/Elongin C (Homo sapiens) (UniProt P40337+Q15370+Q15369); assay: Binding affinity to biotinylated VHL/Elongin B/Elongin C (unknown origin) immobilized in SA sensor chip assessed as second-order on-rate constant for association (Kon) by SPR analysis; assay type: protein-complex assay
[6] = test system: HeLa; assay: Upregulation of HIF-1alpha level in human HeLa cells at 50 uM incubated for 1 hr by immunoblot analysis; assay type: functional, cell-based
[7] = test system: HeLa; assay: Upregulation of hydroxylated HIF-1alpha level in human HeLa cells at 50 uM incubated for 1 hr by immunoblot analysis; assay type: functional, cell-based
[8] = molecular target: Hypoxia-inducible factor 1-alpha (Homo sapiens) (UniProt Q16665); assay: Induction of HIF-1alpha transcription activity in human HeLa cells at 150 uM incubated for 32 hrs by HRE-luciferase based assay; assay type: cell-based
[9] = molecular target: Hypoxia-inducible factor 1-alpha (Homo sapiens) (UniProt Q16665); assay: Induction of HIF-1alpha transcription activity in human U2OS cells at 150 uM incubated for 32 hrs by HRE-luciferase based assay; assay type: cell-based
[10] = molecular target: T1, Von Hippel-Lindau disease tumor suppressor/Elongin B/Elongin C (Homo sapiens, UniProt P40337); assay: Inhibition of VHL/Elongin B/Elongin C (unknown origin) using FAM-DEALA-Hyp-YIPD as substrate by fluorescence polarization assay; assay type: protein-complex assay
[11] = molecular target: T2, von Hippel-Lindau disease tumor suppressor (Homo sapiens, UniProt P40337); assay: Inhibition of NanoLuc-fused VHL (unknown origin) transfected in live HEK293 cells using NanoGlo substrate incubated for 30 mins by tracer based NanoBRET assay; assay type: cell-based
[12] = test system: HeLa; assay: Upregulation of HIF-1alpha level in human HeLa cells at 10 to 100 uM incubated for 1 hr by immunoblot analysis; assay type: functional, cell-based; details: dose 10-100 µM
[13] = test system: HeLa; assay: Upregulation of hydroxylated HIF-1alpha level in human HeLa cells at 10 to 100 uM incubated for 1 hr by immunoblot analysis; assay type: functional, cell-based; details: dose 10-100 µM
[14] = molecular target: Hypoxia-inducible factor 1-alpha (Homo sapiens) (UniProt Q16665); assay: Induction of HIF-1alpha transcription activity in human HeLa cells incubated for 32 hrs by HRE-luciferase based assay; assay type: cell-based
[15] = molecular target: Hypoxia-inducible factor 1-alpha (Homo sapiens) (UniProt Q16665); assay: Induction of HIF-1alpha transcription activity in human U2OS cells incubated for 32 hrs by HRE-luciferase based assay; assay type: cell-based
[16] = molecular target: Hypoxia-inducible factor 1-alpha (Homo sapiens) (UniProt Q16665); assay: Induction of HIF-1alpha transcription activity in human HeLa cells assessed as increase in CA9 mRNA level at 50 uM incubated for 16 hrs by RT-qPCR analysis; assay type: cell-based
[17] = molecular target: T1, Von Hippel-Lindau disease tumor suppressor/Elongin B/Elongin C; assay: Binding affinity to N-terminal His6-tagged VHL (54 to 213 residues)/Elongin B (1 to 104 residues)/Elongin C (17 to 112 residues) (unknown origin) expressed in Escherichia coli BL21(DE3) cells assessed as dissociation constant by ITC analysis
[18] = molecular target: T1, Von Hippel-Lindau disease tumor suppressor/Elongin B/Elongin C; assay: Binding affinity to VHL (54 to 213 residues)/N-terminal Avi-tagged biotinylated-Elongin B (1 to 104 residues)/Elongin C (17 to 112 residues) (unknown origin) expressed in Escherichia coli cells immobilized in SA sensor chip assessed as dissociation constant by SPR analysis
[19] = molecular target: T2, von Hippel-Lindau disease tumor suppressor; assay: Inhibition of NanoLuc-fused VHL (unknown origin) transfected in permeabilized HEK293 cells using NanoGlo substrate incubated for 30 mins by tracer based NanoBRET assay; assay type: cell-based
[20] = molecular target: T1, Von Hippel-Lindau disease tumor suppressor/Elongin B/Elongin C; assay: Binding affinity to biotinylated VHL/Elongin B/Elongin C (unknown origin) immobilized in SA sensor chip assessed as dissociation constant by SPR analysis; assay type: protein-complex assay

T2 sequence (P40337 whole entry, the tested form may be a part): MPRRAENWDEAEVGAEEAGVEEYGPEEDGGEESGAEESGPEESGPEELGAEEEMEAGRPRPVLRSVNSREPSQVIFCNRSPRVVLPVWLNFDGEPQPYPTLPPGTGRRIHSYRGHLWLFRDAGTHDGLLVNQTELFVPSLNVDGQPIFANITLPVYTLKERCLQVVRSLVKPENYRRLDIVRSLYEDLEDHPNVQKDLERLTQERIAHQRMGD
T1 sequence (P40337 whole entry, looked up, the tested form may be a part): as the sequence (P40337 whole entry, the tested form may be a part) above
Chain of Von Hippel-Lindau disease tumor suppressor/Elongin B/Elongin C (Homo sapiens) (P40337 whole entry, looked up): as the sequence (P40337 whole entry, the tested form may be a part) above
Chain of Von Hippel-Lindau disease tumor suppressor/Elongin B/Elongin C (Homo sapiens) (Q15369 whole entry, looked up): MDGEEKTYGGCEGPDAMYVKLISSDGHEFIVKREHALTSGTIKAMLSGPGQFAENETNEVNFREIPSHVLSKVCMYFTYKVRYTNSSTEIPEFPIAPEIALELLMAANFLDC
Chain of Von Hippel-Lindau disease tumor suppressor/Elongin B/Elongin C (Homo sapiens) (Q15370 whole entry, looked up): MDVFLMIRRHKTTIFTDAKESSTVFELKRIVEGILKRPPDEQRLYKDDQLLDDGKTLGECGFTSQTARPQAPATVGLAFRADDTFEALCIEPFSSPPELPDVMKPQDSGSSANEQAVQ
Chain of Hypoxia-inducible factor 1-alpha (Homo sapiens) (Q16665 whole entry, looked up): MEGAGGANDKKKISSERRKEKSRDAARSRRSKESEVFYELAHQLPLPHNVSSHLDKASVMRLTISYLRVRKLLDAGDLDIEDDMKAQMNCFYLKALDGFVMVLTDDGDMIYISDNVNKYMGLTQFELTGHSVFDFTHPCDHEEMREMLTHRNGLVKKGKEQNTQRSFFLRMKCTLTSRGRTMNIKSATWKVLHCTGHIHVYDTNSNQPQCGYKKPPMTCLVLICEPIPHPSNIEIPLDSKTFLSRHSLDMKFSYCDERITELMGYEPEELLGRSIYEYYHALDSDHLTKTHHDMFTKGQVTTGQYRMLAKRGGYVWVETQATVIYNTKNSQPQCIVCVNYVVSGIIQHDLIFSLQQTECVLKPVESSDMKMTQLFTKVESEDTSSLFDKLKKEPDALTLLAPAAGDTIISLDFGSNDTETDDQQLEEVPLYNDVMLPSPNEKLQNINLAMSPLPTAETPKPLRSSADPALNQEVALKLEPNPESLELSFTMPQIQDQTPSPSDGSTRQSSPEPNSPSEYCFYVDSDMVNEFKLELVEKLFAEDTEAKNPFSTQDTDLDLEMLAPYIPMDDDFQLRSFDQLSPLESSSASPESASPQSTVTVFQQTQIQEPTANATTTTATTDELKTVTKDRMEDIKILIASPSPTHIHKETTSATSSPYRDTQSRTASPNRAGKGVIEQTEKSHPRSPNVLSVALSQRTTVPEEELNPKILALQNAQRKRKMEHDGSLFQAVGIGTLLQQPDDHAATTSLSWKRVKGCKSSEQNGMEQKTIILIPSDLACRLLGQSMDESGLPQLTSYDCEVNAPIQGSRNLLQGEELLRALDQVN

Compound	Activity [1] [%]	Activity [2] [%]	Activity [3] [%]	Activity [4] [%]	K [5]	also measured
Cc1ncsc1-c1ccc(CNC(=O)[C@@H]2C[C@H](O)CN2C(=O)[C@@H](NC(=O)C2(C#N)CC2)C(C)(C)C)cc1	–	–	–	–	–	Activity [6]: inactive; Activity [7]: inactive; Activity [8]: inactive; Activity [9]: inactive
Cc1ncsc1-c1ccc(CNC(=O)[C@@H]2C[C@@H](O)CN2C(=O)Cc2cccc(N)c2C)cc1	–	–	–	–	–	IC50 [10]: 0.9 µM
Cc1cc(-c2scnc2C)c(F)cc1[C@H](C)NC(=O)[C@@H]1C[C@@H](O)CN1C(=O)[C@@H](NC(=O)C1(F)CC1)C(C)(C)C	155	152	217	137	1 10^6/M/s	IC50 [11]: 0.366 µM
COc1cc(-c2scnc2C)c(F)cc1[C@H](C)NC(=O)[C@@H]1C[C@@H](O)CN1C(=O)[C@@H](NC(=O)C1(F)CC1)C(C)(C)C	128	145	179	137	–	Activity [12]: Active; Activity [13]: Active; Activity [14]: Dose-Dependent Effect; Activity [15]: Dose-Dependent Effect; Activity [16]: Active
CC(=O)N[C@H](C(=O)N1C[C@H](O)[C@H](F)[C@H]1C(=O)NCc1ccc(-c2scnc2C)cc1)C(C)(C)C	–	–	–	–	–	Kd [17]: 0.244 µM
Cc1ncsc1-c1ccc(CNC(=O)[C@@H]2C[C@@H](O)CN2C(=O)[C@@H](NC(=O)C2(C#N)CC2)C(C)(C)C)cc1	–	–	–	–	–	Activity [14]: Dose-Dependent Effect; Activity [15]: Dose-Dependent Effect; Activity [16]: Active
Cc1ncsc1-c1ccc([C@H](C)NC(=O)[C@@H]2C[C@@H](O)CN2C(=O)[C@@H](NC(=O)C2(C#N)CC2)C(C)(C)C)cc1F	105	48	123	52	–	–
Cc1ncsc1-c1ccc(CNC(=O)[C@@H]2C[C@@H](O)CN2C(=O)[C@@H](NC(=O)C2(C#N)CC2)C(C)(C)C)cc1F	83	18	74	20	–	–
CC(=O)N[C@H](C(=O)N1C[C@H](O)C[C@H]1C(=O)NCc1ccc(-c2scnc2C)cc1C(F)(F)F)C(C)(C)C	–	–	–	–	–	Kd [18]: 0.268 µM
CC(=O)N[C@H](C(=O)N1C[C@H](O)C[C@H]1C(=O)NCc1ccc(-c2scnc2C)c(C(F)(F)F)c1)C(C)(C)C	–	–	–	–	–	Kd [18]: 2.99 µM

Second part, led by results:

Activity [1] [%]	Activity [2] [%]	Activity [3] [%]	Activity [4] [%]	K [5]	Compound	also measured
95	73	98	68	1 10^6/M/s	COc1cc(-c2scnc2C)c(F)cc1CNC(=O)[C@@H]1C[C@@H](O)CN1C(=O)[C@@H](NC(=O)C1(F)CC1)C(C)(C)C	–
107	89	108	75	1 10^6/M/s	Cc1ncsc1-c1ccc(CNC(=O)[C@@H]2C[C@@H](O)CN2C(=O)[C@@H](NC(=O)C2(F)CC2)C(C)(C)C)cc1F	–
116	78	120	69	1 10^6/M/s	Cc1cc(-c2scnc2C)ccc1CNC(=O)[C@@H]1C[C@@H](O)CN1C(=O)[C@@H](NC(=O)C1(F)CC1)C(C)(C)C	–
120	92	177	102	1 10^6/M/s	Cc1ncsc1-c1ccc([C@H](C)NC(=O)[C@@H]2C[C@@H](O)CN2C(=O)[C@@H](NC(=O)C2(F)CC2)C(C)(C)C)cc1F	–
89	78	88	66	–	Cc1cc(-c2scnc2C)ccc1CNC(=O)[C@@H]1C[C@@H](O)CN1C(=O)[C@@H](NC(=O)C1(C#N)CC1)C(C)(C)C	–
182	224	263	208	1 10^6/M/s	Cc1cc(-c2scnc2C)ccc1[C@H](C)NC(=O)[C@@H]1C[C@@H](O)CN1C(=O)[C@@H](NC(=O)C1(F)CC1)C(C)(C)C	Activity [12]: Active; Activity [13]: Active; IC50 [11]: 0.164 µM; IC50 [19]: 0.122 µM; Activity [14]: Dose-Dependent Effect; Activity [15]: Dose-Dependent Effect; Activity [16]: Active
124	110	153	76	1 10^6/M/s	Cc1cc(-c2scnc2C)c(F)cc1CNC(=O)[C@@H]1C[C@@H](O)CN1C(=O)[C@@H](NC(=O)C1(F)CC1)C(C)(C)C	Kd [20]: 0.072 µM
155	90	221	110	–	Cc1cc(-c2scnc2C)ccc1[C@H](C)NC(=O)[C@@H]1C[C@@H](O)CN1C(=O)[C@@H](NC(=O)C1(C#N)CC1)C(C)(C)C	–
